What was measured:
[1] = target: cAMP-dependent protein kinase catalytic subunit PRKX (Homo sapiens) (UniProt P51817); conditions: Compound concentration 1000.0 nM
[2] = target: Serine/threonine-protein kinase BRSK1 (Homo sapiens) (UniProt Q8TDC3); conditions: Compound concentration 1000.0 nM
[3] = target: T1, GABA-A receptor; anion channel (Rattus norvegicus) (UniProt O09028+P15431+P18506+P18508+P19969+P20236+P23574+P23576+P28471+P28473+P30191+P62813+P63079+P63138+Q91ZM7+Q9ES14); conditions: Compound concentration 10.0 uM
[4] = test system: Tyrosine-protein kinase ABL1 (Homo sapiens), P00519 [T315I]; conditions: Compound concentration 1000.0 nM
[5] = target: Ephrin type-B receptor 4 (Homo sapiens) (UniProt P54760); conditions: Compound concentration 1000.0 nM
[6] = target: Non-receptor tyrosine-protein kinase TYK2 (Homo sapiens) (UniProt P29597); conditions: Compound concentration 1000.0 nM
Non-receptor tyrosine-protein kinase TYK2 (Homo sapiens), sequence (P29597 whole entry): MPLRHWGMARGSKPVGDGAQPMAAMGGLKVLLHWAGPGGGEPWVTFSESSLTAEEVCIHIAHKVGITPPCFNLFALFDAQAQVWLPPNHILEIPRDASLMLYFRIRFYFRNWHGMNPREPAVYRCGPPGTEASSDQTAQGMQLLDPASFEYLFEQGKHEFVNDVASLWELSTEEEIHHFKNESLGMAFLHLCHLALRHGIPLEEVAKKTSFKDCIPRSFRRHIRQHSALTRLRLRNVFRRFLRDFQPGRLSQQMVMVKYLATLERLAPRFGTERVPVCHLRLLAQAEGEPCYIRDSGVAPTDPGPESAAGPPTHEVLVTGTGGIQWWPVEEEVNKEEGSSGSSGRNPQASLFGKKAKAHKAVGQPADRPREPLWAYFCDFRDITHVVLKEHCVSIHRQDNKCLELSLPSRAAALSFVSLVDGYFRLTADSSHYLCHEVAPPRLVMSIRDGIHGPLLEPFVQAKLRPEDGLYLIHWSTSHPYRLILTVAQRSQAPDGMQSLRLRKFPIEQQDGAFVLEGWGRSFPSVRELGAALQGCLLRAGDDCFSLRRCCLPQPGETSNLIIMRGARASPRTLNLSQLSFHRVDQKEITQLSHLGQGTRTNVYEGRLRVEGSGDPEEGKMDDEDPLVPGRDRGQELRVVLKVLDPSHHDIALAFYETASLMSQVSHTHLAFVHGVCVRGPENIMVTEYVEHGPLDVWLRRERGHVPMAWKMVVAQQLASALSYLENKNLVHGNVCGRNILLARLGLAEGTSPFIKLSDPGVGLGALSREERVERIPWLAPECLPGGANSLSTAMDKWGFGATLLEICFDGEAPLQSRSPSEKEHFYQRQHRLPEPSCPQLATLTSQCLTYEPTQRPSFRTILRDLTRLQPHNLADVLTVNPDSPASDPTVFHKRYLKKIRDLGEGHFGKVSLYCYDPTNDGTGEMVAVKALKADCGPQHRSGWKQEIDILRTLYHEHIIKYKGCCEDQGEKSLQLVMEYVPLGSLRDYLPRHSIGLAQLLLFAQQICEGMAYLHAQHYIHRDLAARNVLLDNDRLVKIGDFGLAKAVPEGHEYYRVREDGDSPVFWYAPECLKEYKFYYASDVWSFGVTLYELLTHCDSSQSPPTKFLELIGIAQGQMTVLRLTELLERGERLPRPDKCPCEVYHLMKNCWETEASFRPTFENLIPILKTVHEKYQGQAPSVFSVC

[7] = target: Receptor tyrosine-protein kinase erbB-2 (Homo sapiens) (UniProt P04626); conditions: Compound concentration 1000.0 nM
[8] = target: Myosin-IIIa (Homo sapiens) (UniProt Q8NEV4); conditions: Compound concentration 1000.0 nM
[9] = target: Angiopoietin-1 receptor (Homo sapiens) (UniProt Q02763); conditions: Compound concentration 1000.0 nM
[10] = test system: Receptor-type tyrosine-protein kinase FLT3 (Homo sapiens), P36888 [D835V]; conditions: Compound concentration 1000.0 nM
[11] = target: Serine/threonine-protein kinase STK11 (Homo sapiens) (UniProt Q15831); conditions: Compound concentration 1000.0 nM
[12] = target: Insulin receptor-related protein (Homo sapiens) (UniProt P14616); conditions: Compound concentration 1000.0 nM
[13] = target: Sodium-dependent serotonin transporter (Homo sapiens) (UniProt P31645); conditions: Compound concentration 10.0 uM
[14] = target: Serine/threonine-protein kinase/endoribonuclease IRE1 (Homo sapiens) (UniProt O75460); conditions: Compound concentration 1000.0 nM
Serine/threonine-protein kinase/endoribonuclease IRE1 (Homo sapiens), sequence (O75460 19-977 limits assumed): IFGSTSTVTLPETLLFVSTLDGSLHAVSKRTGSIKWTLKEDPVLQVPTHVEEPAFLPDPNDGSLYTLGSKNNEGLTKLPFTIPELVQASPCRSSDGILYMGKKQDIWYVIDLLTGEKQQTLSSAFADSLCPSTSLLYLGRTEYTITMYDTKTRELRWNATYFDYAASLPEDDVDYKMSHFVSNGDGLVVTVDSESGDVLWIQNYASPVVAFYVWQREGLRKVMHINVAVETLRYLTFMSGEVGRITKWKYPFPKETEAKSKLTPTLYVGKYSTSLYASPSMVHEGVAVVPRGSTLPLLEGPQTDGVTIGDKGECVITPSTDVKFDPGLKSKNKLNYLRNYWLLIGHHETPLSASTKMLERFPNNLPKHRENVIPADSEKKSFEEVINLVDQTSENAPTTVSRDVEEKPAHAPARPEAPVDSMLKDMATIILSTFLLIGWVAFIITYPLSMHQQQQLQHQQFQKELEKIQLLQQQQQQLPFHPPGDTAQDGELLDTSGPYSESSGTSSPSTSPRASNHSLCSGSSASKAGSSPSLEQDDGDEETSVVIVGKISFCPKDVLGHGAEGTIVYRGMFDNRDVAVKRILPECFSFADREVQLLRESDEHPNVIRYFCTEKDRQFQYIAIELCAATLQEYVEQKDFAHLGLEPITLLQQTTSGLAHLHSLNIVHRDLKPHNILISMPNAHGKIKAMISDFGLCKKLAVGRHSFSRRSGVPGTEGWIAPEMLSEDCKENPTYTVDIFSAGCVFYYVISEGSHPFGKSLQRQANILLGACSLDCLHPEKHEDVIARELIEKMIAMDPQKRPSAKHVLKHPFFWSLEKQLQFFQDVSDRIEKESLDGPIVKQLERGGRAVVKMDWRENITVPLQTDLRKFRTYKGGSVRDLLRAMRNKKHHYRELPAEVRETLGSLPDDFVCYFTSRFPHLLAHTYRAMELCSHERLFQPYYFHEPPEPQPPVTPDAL

[15] = target: Glycogen synthase kinase-3 alpha (Homo sapiens) (UniProt P49840); conditions: Compound concentration 1000.0 nM
[16] = target: Ribosomal protein S6 kinase alpha-5 (Homo sapiens) (UniProt O75582); conditions: Compound concentration 1000.0 nM
[17] = target: Activated CDC42 kinase 1 (Homo sapiens) (UniProt Q07912); conditions: Compound concentration 1000.0 nM
[18] = target: Mitogen-activated protein kinase 12 (Homo sapiens) (UniProt P53778); conditions: Compound concentration 1000.0 nM
[19] = target: Serine/threonine-protein kinase pim-2 (Homo sapiens) (UniProt Q9P1W9); conditions: Compound concentration 1000.0 nM
Serine/threonine-protein kinase pim-2 (Homo sapiens), sequence (Q9P1W9 whole entry, looked up): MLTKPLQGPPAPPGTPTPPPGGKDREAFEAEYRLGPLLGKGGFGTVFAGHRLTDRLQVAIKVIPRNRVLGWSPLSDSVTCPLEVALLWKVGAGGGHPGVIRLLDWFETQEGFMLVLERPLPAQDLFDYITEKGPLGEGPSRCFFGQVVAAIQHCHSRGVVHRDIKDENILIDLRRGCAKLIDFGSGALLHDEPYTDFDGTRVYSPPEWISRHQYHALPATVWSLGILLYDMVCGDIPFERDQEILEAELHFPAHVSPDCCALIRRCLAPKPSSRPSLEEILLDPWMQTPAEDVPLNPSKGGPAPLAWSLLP

[20] = target: Protein kinase C iota type (Homo sapiens) (UniProt P41743); conditions: Compound concentration 1000.0 nM
[21] = target: T1, GABA-A receptor; anion channel (Rattus norvegicus); conditions: Compound concentration 10.0 uM; remark: listed apart in the source
[22] = target: cGMP-dependent protein kinase 1 (Homo sapiens) (UniProt Q13976); conditions: Compound concentration 1000.0 nM
[23] = target: Myotonin-protein kinase (Homo sapiens) (UniProt Q09013); conditions: Compound concentration 1000.0 nM
[24] = target: Phosphatidylinositol 4,5-bisphosphate 3-kinase catalytic subunit beta isoform (Homo sapiens) (UniProt P42338); conditions: Compound concentration 1000.0 nM
Phosphatidylinositol 4,5-bisphosphate 3-kinase catalytic subunit beta isoform (Homo sapiens), sequence (P42338 whole entry, looked up, the tested form may be a part, canonical isoform): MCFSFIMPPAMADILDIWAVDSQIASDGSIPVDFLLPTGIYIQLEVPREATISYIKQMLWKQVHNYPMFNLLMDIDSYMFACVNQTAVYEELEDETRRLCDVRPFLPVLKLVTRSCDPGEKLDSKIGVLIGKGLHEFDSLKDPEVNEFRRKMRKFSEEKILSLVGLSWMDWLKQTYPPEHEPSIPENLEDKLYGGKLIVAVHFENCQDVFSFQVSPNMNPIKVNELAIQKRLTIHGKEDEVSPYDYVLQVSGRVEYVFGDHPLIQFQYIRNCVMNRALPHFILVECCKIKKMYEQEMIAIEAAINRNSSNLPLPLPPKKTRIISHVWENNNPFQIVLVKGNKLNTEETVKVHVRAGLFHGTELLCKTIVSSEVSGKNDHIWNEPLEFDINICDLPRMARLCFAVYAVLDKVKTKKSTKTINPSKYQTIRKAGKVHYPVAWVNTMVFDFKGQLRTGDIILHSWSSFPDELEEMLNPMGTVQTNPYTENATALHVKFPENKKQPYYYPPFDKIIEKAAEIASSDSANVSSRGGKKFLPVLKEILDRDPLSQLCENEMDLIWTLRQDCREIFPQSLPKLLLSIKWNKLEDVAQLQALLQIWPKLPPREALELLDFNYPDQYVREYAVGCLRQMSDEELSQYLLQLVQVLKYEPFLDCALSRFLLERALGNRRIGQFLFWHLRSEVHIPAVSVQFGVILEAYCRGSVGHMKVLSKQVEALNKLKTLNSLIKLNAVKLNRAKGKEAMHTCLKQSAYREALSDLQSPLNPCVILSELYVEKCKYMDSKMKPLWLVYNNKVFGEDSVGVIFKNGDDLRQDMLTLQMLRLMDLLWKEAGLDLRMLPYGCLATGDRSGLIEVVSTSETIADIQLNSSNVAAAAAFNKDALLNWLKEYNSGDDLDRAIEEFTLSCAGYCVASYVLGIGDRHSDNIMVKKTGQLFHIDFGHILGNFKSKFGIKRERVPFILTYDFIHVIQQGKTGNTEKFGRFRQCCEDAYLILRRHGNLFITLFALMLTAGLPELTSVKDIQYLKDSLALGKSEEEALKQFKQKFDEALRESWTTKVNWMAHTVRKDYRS

[25] = target: LIM domain kinase 2 (Homo sapiens) (UniProt P53671); conditions: Compound concentration 1000.0 nM
LIM domain kinase 2 (Homo sapiens), sequence (P53671 whole entry, looked up, the tested form may be a part): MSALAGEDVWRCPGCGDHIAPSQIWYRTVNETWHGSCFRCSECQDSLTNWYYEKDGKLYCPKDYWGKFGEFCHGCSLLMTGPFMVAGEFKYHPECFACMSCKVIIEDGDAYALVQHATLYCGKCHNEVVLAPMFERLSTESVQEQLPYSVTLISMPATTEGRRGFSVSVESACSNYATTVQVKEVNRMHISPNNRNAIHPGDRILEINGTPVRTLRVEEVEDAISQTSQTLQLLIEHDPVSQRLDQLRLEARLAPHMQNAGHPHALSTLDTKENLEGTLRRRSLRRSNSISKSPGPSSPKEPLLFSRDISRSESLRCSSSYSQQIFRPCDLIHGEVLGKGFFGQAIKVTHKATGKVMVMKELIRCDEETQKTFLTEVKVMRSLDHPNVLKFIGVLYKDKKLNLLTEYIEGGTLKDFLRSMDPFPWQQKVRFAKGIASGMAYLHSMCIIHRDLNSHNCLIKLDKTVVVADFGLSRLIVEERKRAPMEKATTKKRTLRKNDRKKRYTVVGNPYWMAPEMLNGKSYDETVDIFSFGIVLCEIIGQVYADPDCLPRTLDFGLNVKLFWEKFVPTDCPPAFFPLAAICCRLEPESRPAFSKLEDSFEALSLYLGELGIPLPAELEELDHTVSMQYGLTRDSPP

[26] = target: Mitogen-activated protein kinase 6 (Homo sapiens) (UniProt Q16659); conditions: Compound concentration 1000.0 nM
[27] = target: Death-associated protein kinase 3 (Homo sapiens) (UniProt O43293); conditions: Compound concentration 1000.0 nM
[28] = target: Serine/threonine-protein kinase 32C (Homo sapiens) (UniProt Q86UX6); conditions: Compound concentration 1000.0 nM
Serine/threonine-protein kinase 32C (Homo sapiens), sequence (Q86UX6 whole entry): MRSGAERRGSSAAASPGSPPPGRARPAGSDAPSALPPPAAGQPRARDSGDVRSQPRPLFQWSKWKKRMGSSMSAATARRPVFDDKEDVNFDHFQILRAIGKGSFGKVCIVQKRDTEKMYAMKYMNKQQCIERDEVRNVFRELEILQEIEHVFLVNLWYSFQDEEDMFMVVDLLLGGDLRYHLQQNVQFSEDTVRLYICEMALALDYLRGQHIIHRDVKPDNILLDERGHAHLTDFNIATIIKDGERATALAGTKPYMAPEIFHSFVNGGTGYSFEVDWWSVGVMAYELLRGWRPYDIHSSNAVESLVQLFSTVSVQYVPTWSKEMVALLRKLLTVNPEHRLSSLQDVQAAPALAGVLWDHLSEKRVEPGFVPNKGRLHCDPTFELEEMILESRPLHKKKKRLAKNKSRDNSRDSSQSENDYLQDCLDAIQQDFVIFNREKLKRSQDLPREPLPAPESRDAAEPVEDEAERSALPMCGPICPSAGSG

[29] = target: Ephrin type-B receptor 3 (Homo sapiens) (UniProt P54753); conditions: Compound concentration 1000.0 nM
[30] = target: 1-phosphatidylinositol 3-phosphate 5-kinase (Homo sapiens) (UniProt Q9Y2I7); conditions: Compound concentration 1000.0 nM
[31] = target: D(3) dopamine receptor (Homo sapiens) (UniProt P35462); conditions: Compound concentration 10.0 uM
[32] = target: Ephrin type-A receptor 8 (Homo sapiens) (UniProt P29322); conditions: Compound concentration 1000.0 nM
[33] = target: Tyrosine-protein kinase ABL1 (Homo sapiens) (UniProt P00519); conditions: Compound concentration 1000.0 nM
[34] = target: G protein-coupled receptor kinase 4 (Homo sapiens) (UniProt P32298); conditions: Compound concentration 1000.0 nM
[35] = target: Ephrin type-A receptor 6 (Homo sapiens) (UniProt Q9UF33); conditions: Compound concentration 1000.0 nM
[36] = target: Phosphatidylinositol 4-phosphate 3-kinase C2 domain-containing subunit beta (Homo sapiens) (UniProt O00750); conditions: Compound concentration 1000.0 nM
[37] = target: Tyrosine-protein kinase SYK (Homo sapiens) (UniProt P43405); conditions: Compound concentration 1000.0 nM
[38] = test system: Tyrosine-protein kinase ABL1 (Homo sapiens), P00519 [H396P]; conditions: Compound concentration 1000.0 nM
[39] = target: Serine/threonine-protein kinase Nek11 (Homo sapiens) (UniProt Q8NG66); conditions: Compound concentration 1000.0 nM
[40] = target: Mitogen-activated protein kinase kinase kinase 15 (Homo sapiens) (UniProt Q6ZN16); conditions: Compound concentration 1000.0 nM
[41] = target: Wee1-like protein kinase (Homo sapiens) (UniProt P30291); conditions: Compound concentration 1000.0 nM
[42] = target: Ribosomal protein S6 kinase alpha-6 (Homo sapiens) (UniProt Q9UK32); conditions: Compound concentration 1000.0 nM
[43] = target: Ribosomal protein S6 kinase alpha-2 (Homo sapiens) (UniProt Q15349); conditions: Compound concentration 1000.0 nM

cAMP-dependent protein kinase catalytic subunit PRKX (Homo sapiens), sequence (P51817 whole entry): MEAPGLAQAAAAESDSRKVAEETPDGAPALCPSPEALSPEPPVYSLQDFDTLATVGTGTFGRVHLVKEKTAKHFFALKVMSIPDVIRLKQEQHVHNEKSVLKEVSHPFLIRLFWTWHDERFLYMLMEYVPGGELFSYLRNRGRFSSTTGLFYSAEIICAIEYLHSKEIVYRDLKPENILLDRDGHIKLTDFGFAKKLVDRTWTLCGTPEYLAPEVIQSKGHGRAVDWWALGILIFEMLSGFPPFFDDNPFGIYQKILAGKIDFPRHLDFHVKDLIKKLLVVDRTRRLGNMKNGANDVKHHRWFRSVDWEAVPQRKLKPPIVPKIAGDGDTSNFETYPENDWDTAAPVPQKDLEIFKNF

CO[C@@H](C)c1c(Nc2ccc([C@@H](N(C)C(=O)C3CCS(=O)(=O)CC3)C(F)(F)F)cc2)cnc2cc(Cl)nn12 [NVS-MALT1-C]
residual activity [1]: 84% | residual activity [2]: 93% | inhibition [3]: 20.8% | residual activity [4]: 100% | residual activity [5]: 100% | residual activity [6]: 98% | residual activity [7]: 70% | residual activity [8]: 100% | residual activity [9]: 90% | residual activity [10]: 52% | residual activity [11]: 78% | residual activity [12]: 89% | inhibition [13]: 14.6% | residual activity [14]: 100% | residual activity [15]: 94% | residual activity [16]: 82% | residual activity [17]: 84% | residual activity [18]: 92% | residual activity [19]: 95% | residual activity [20]: 76% | inhibition [21]: 19.2% | residual activity [22]: 92% | residual activity [23]: 91% | residual activity [24]: 72% | residual activity [25]: 87% | residual activity [26]: 91% | residual activity [27]: 47% | residual activity [28]: 82% | residual activity [29]: 100% | residual activity [30]: 65% | inhibition [31]: -5.92% | residual activity [32]: 91% | residual activity [33]: 59% | residual activity [34]: 100% | residual activity [35]: 100% | residual activity [36]: 89% | residual activity [37]: 90% | residual activity [38]: 98% | residual activity [39]: 100% | residual activity [40]: 100% | residual activity [41]: 92% | residual activity [42]: 100% | residual activity [43]: 89%

CO[C@@H](C)c1c(Nc2ccc([C@H](N(C)C(=O)C3CCS(=O)(=O)CC3)C(F)(F)F)cc2)cnc2cc(Cl)nn12 [NVS-MALT1]
residual activity [1]: 88% | residual activity [2]: 78% | inhibition [3]: 21.3% | residual activity [4]: 100% | residual activity [5]: 100% | residual activity [6]: 100% | residual activity [7]: 59% | residual activity [8]: 100% | residual activity [9]: 84% | residual activity [10]: 59% | residual activity [11]: 68% | residual activity [12]: 94% | inhibition [13]: 11.3% | residual activity [14]: 91% | residual activity [15]: 86% | residual activity [16]: 86% | residual activity [17]: 100% | residual activity [18]: 98% | residual activity [19]: 100% | residual activity [20]: 72% | inhibition [21]: 27.9% | residual activity [22]: 85% | residual activity [23]: 84% | residual activity [24]: 65% | residual activity [25]: 91% | residual activity [26]: 92% | residual activity [27]: 91% | residual activity [28]: 99% | residual activity [29]: 100% | residual activity [30]: 54% | inhibition [31]: -4.43% | residual activity [32]: 91% | residual activity [33]: 59% | residual activity [34]: 85% | residual activity [35]: 100% | residual activity [36]: 97% | residual activity [37]: 82% | residual activity [38]: 100% | residual activity [39]: 100% | residual activity [40]: 100% | residual activity [41]: 88% | residual activity [42]: 100% | residual activity [43]: 79%

Reference: ChEMBL document CHEMBL4507320, “Data for DCP probe NVS-MALT1” (2021)
